Assays:
Format in all cases: biochemical
p110β/p85α = p110β/p85α (Homo sapiens, UniProt P42338); experiment: Transcreener KINASE Assay, kinase inhibition of p110β/p85α; conditions: for PI3Kβ IH % @ 1 uM: 1 uM test compound; for IC50: read-out: PI3Kβ IC50
Description: (§1) PI3K kinases including p110α/p85α, p110δ/p85α and p110γ are purchased from Invitrogen, and p110β/p85α is from Millipore.
(§2) Primary screening data and IC50 values are measured using Transcreener™ KINASE Assay (Bellbrook, Catalog #3003-10K). […] It is a universal, homogenous, high throughput screening (HTS) technology using a far-red, competitive fluorescence polarization immunoassay based on the detection of ADP to monitor the activity of enzymes that catalyze group transfer reactions. Briefly, the Transcreener KINASE Assay is designed as a simple two-part, endpoint assay.
(§3) In the first step, the 25 ul kinase reaction is performed by preparing a reaction mixture containing 5 ul test compound (2% DMSO final concentration), 10 ul kinase, buffer (50 mM HEPES, 100 mM NaCl, 1 mM EGTA, 0.03% CHAPS, 3 mM MgCl2, and freshly supplemented 1 mM DTT), and 10 ul 30 uM PIP2/10 uM ATP. The plate is sealed and incubated for 80 min at room temperature. Next, 25 ul ADP detection mix is added per well. The plate is sealed again and incubated for 60 min at room temperature, and then measure fluorescence polarization by Tecan Infinite F500 Reader.
(§4) Data is analyzed and IC50s are generated using the add-in software for Microsoft Excel, Xlfit™ (version 2.0). IH %=(ADP amount under 2% DMSO-ADP amount under test compound)/ADP amount under 2% DMSO.

p110γ = p110γ (Homo sapiens, UniProt P48736); experiment: Transcreener KINASE Assay, kinase inhibition of p110γ; conditions: for PI3Kγ IH % @ 1 uM: 1 uM test compound; for IC50: read-out: PI3Kγ IC50
Sequence of p110γ (P48736 whole entry): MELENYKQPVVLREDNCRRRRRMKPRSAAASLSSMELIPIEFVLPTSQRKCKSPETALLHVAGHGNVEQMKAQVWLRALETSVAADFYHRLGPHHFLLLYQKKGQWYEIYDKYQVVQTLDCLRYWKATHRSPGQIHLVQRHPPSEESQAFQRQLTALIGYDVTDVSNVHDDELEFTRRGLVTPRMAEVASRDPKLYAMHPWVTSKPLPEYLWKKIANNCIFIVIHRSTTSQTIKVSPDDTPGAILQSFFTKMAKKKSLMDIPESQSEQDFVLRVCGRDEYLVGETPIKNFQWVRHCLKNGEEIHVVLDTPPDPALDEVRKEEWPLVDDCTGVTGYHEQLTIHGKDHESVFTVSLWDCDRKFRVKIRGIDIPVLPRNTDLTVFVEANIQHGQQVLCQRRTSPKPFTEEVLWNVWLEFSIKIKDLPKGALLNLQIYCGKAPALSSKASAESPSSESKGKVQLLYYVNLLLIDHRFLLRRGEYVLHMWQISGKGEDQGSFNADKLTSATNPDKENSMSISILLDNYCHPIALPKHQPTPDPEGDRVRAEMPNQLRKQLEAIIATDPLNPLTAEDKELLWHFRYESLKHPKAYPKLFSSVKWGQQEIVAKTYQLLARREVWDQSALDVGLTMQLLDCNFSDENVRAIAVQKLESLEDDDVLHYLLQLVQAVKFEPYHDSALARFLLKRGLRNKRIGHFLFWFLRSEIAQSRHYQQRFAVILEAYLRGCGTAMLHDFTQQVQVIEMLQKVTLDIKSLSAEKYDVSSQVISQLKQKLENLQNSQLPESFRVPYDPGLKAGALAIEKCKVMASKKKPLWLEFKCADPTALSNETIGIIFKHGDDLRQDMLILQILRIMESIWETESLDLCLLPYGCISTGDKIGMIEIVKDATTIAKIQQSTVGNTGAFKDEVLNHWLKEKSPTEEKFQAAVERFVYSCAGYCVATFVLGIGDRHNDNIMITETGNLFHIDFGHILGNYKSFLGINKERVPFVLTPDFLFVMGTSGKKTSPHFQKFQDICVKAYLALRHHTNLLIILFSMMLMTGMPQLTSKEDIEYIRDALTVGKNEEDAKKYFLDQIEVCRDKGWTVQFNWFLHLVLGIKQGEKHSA
Description: Kinase Inhibition assays of p110α/p85α, p110β/p85α, p110δ/p85α and p110γ PI3K kinases including p110α/p85α, p110δ/p85α and p110γ are purchased from Invitrogen, and p110β/p85α is from Millipore. Primary screening data and IC50 values are measured using Transcreener™ KINASE Assay (Bellbrook, Catalog #3003-10K). […] It is a universal, homogenous, high throughput screening (HTS) technology using a far-red, competitive fluorescence polarization immunoassay based on the detection of ADP to monitor the activity of enzymes that catalyze group transfer reactions. Briefly, the Transcreener KINASE Assay is designed as a simple two-part, endpoint assay. […] The plate is sealed and incubated for 80 min at room temperature. Next, 25 ul ADP detection mix is added per well. The plate is sealed again and incubated for 60 min at room temperature, and then measure fluorescence polarization by Tecan Infinite F500 Reader. Data is analyzed and IC50s are generated using the add-in software for Microsoft Excel, Xlfit™ (version 2.0).

p110δ/p85α = p110δ/p85α (Homo sapiens, UniProt O00329); experiment: Transcreener KINASE Assay, kinase inhibition of p110δ/p85α; conditions: for PI3Kδ IH % @ 1 uM: 1 uM test compound; for IC50: read-out: PI3Kδ IC50
Sequence of p110δ/p85α (O00329 whole entry): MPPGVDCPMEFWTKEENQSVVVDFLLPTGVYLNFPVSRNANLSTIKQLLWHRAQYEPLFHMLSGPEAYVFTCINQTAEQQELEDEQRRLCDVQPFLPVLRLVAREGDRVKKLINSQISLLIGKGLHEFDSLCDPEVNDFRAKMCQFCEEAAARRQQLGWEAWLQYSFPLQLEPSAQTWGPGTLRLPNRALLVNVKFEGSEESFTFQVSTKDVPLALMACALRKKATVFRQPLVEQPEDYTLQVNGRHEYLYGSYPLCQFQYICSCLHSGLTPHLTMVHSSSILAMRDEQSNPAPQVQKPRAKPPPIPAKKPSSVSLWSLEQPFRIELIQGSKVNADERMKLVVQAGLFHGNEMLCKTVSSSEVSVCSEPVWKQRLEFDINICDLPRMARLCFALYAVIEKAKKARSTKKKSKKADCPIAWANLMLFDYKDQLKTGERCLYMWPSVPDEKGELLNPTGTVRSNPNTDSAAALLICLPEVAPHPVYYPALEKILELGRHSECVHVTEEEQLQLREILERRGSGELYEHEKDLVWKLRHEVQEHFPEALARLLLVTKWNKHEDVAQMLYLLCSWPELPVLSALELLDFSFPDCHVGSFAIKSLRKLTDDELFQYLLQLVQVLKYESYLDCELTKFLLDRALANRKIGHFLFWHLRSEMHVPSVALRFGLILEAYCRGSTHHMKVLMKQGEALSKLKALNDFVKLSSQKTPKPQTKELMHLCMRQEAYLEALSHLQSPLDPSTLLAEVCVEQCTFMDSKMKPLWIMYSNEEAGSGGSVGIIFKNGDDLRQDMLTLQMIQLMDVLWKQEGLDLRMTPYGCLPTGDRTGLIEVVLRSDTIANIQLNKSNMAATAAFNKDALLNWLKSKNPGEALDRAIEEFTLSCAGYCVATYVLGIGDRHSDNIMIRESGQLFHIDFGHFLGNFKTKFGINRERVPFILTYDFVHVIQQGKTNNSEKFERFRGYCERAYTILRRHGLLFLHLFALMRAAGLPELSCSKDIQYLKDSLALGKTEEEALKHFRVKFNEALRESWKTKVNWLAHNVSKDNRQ
Sequence of p110δ/p85α (P27986 whole entry partner): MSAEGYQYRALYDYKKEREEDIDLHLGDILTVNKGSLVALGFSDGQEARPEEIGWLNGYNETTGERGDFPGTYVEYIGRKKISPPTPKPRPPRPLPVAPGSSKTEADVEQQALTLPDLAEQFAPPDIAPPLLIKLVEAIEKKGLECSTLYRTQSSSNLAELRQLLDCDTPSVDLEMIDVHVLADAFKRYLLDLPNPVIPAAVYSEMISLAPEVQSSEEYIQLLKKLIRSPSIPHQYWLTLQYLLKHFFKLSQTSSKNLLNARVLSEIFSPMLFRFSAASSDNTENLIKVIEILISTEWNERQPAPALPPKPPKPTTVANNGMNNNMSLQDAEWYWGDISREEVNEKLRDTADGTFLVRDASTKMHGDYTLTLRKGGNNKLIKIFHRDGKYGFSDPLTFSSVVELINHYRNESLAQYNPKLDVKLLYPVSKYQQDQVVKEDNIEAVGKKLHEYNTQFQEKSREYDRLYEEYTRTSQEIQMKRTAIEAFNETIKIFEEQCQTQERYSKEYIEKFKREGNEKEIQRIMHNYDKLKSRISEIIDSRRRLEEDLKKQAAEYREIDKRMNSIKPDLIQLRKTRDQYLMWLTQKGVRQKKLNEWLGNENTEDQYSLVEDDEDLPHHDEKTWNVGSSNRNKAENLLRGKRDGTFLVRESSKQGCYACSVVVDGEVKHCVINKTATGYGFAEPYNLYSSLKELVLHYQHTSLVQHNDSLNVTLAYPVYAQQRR
Description: as §1, §2, §3, §4

Sequence of p110β/p85α (P42338 whole entry): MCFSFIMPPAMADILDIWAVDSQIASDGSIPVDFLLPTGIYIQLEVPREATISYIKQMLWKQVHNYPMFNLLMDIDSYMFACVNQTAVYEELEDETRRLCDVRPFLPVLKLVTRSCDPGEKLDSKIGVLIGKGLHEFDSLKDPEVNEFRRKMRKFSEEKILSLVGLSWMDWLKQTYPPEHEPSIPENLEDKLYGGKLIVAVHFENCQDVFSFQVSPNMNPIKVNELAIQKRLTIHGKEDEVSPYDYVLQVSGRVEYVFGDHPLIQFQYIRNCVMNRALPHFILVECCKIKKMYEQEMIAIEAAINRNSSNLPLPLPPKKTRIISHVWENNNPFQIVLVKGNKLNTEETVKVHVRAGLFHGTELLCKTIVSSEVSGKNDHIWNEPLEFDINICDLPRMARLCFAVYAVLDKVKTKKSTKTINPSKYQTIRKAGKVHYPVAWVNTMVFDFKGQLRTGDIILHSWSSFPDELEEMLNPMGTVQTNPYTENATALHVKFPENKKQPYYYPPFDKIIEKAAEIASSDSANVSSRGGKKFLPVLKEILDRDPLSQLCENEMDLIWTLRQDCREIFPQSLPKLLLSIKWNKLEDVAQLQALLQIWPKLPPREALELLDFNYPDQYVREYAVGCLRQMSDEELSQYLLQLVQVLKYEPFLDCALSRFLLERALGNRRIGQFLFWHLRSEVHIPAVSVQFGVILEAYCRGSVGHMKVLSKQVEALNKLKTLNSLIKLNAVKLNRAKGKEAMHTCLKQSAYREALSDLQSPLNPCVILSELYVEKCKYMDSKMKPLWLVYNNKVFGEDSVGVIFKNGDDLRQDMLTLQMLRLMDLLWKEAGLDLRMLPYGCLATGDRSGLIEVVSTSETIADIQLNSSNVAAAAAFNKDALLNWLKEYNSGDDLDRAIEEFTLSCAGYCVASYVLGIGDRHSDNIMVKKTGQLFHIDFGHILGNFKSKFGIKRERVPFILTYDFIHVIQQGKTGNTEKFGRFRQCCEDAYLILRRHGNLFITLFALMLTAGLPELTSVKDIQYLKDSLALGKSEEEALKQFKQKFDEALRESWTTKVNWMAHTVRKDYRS
Sequence of p110β/p85α (P27986 2-724 partner): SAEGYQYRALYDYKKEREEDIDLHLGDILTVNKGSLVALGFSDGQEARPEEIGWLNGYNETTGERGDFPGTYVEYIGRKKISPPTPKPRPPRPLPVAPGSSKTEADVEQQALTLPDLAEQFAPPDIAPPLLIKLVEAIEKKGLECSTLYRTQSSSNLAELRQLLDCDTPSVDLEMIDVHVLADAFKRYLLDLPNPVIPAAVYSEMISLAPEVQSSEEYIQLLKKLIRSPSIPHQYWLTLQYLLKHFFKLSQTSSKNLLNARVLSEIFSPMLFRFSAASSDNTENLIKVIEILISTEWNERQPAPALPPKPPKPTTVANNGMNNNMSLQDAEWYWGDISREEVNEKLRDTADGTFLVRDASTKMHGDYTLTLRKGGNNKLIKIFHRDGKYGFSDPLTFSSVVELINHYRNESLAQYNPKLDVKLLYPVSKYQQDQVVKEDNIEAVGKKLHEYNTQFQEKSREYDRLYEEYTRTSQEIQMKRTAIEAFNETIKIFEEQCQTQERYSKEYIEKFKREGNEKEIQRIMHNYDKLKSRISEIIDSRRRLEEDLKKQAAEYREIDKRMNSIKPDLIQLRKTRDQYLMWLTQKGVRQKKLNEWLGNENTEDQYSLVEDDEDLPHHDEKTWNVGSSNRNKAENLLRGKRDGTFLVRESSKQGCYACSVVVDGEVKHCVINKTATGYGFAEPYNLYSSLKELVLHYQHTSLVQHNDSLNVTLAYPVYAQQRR

| SMILES | PI3Kβ IH % @ 1 uM (p110β/p85α) [%] | PI3Kγ IH % @ 1 uM (p110γ) [%] | IC50 (p110γ) [nM] | PI3Kδ IH % @ 1 uM (p110δ/p85α) [%] | IC50 (p110δ/p85α) [nM] | IC50 (p110β/p85α) [nM] |
| --- | --- | --- | --- | --- | --- | --- |
| O=c1c2c(C3CC3)ccn2nc([C@@H]2CCCN2c2ncnc3[nH]cnc23)n1-c1ccccc1 [Compound 51] | −7.4 | 89.1 | 293 | 80.1 | 343 | – |
| Nc1nc(N2CCC[C@H]2c2nn3ccc(C4CC4)c3c(=O)n2-c2ccccc2)c2nc[nH]c2n1 [Compound 53] | −11.0 | 86.4 | 35 | 68.8 | – | – |
| O=c1c2c(Br)ccn2nc([C@@H]2CCN2c2ncnc3[nH]cnc23)n1-c1ccccc1 [Compound 56] | 21.7 | 83.9 | – | 91.1 | – | – |
| N#Cc1c[nH]c2ncnc(N3CC[C@H]3c3nn4ccc(Cl)c4c(=O)n3CC(F)F)c12 [Compound 59, (S)-4-(2-(5-chloro-3-(2,2-difluoroethyl)-4-oxo-3,4-dihydropyrrolo[2,1-f][1,2,4]triazin-2-yl)azetidin-1-yl)-7H-pyrrolo[2,3-d]pyrimidine-5-carbonitrile] | 34.7 | 45.8 | – | 73.6 | 392 | – |
| N#Cc1c[nH]c2ncnc(N3CC[C@H]3c3nn4ccc(Cl)c4c(=O)n3Cc3ccccn3)c12 [Compound 60] | 3.2 | 29.5 | – | 69.0 | 325 | – |
| N#Cc1c[nH]c2ncnc(N3CC[C@H]3c3nn4ccc(Cl)c4c(=O)n3Cc3cccnc3)c12 [Compound 61] | 7.9 | 45.1 | – | 73.9 | 309 | – |
| Cn1c([C@@H]2CCCN2c2ncnc3[nH]cc(C#N)c23)nn2ccc(Cl)c2c1=O [Compound 63] | 93.7 | >100 | 81 | 97.7 | – | 61 |

Further compounds by falling IC50 (p110δ/p85α), results first:

| PI3Kβ IH % @ 1 uM (p110β/p85α) [%] | PI3Kγ IH % @ 1 uM (p110γ) [%] | IC50 (p110γ) [nM] | PI3Kδ IH % @ 1 uM (p110δ/p85α) [%] | IC50 (p110δ/p85α) [nM] | IC50 (p110β/p85α) [nM] | SMILES |
| --- | --- | --- | --- | --- | --- | --- |
| 26.0 | 11.9 | – | 90.1 | 207 | – | Nc1nc2cccc(N3CCC[C@H]3c3nn4ccc(Cl)c4c(=O)n3-c3ccccc3)n2n1 [Compound 54] |
| 8.8 | 89.3 | 107 | 87.2 | 110 | – | N#Cc1c[nH]c2ncnc(N3CCC[C@H]3c3nn4ccc(C5CC5)c4c(=O)n3-c3ccccc3)c12 [Compound 52] |
| 4.4 | 89.3 | 149 | >100 | 29 | – | Nc1ncc(C(F)(F)F)c(N2CCC[C@H]2c2nn3ccc(Cl)c3c(=O)n2-c2ccccc2)n1 [Compound 50] |
| 52.1 | 73.8 | 78 | 98.5 | 28 | – | O=c1c2c(Cl)ccn2nc([C@@H]2CCCN2c2ncnc3[nH]cnc23)n1Cc1ccccn1 [Compound 68] |
| 37.1 | 88.3 | 239 | 98.2 | 13 | – | O=c1c2c(Cl)ccn2nc([C@@H]2CC(F)(F)CN2c2ncnc3[nH]cnc23)n1-c1ccccc1 [Compound 57] |
| 23.8 | 99.5 | 67 | 97.6 | 8 | – | N#Cc1c[nH]c2ncnc(N3CC[C@H]3c3nn4ccc(Br)c4c(=O)n3-c3ccccc3)c12 [Compound 55] |
| 71.3 | 61.0 | – | 98.1 | 7 | 188 | N#Cc1c[nH]c2ncnc(N3CCC[C@H]3c3nn4ccc(Cl)c4c(=O)n3CC(F)(F)F)c12 [Compound 67] |
| 45.5 | 97.6 | 73 | >100 | 5 | – | N#Cc1c[nH]c2ncnc(N3CC(F)(F)C[C@H]3c3nn4ccc(Cl)c4c(=O)n3-c3ccccc3)c12 [Compound 58] |
